Test results: ChEMBL document CHEMBL2311382, “Tryptanthrin derivatives as Toxoplasma gondii inhibitors--structure-activity-relationship of the 6-position” (Bioorg Med Chem Lett, 2013)

Key:
Toxoplasma gondii = test: Antimicrobial activity against Toxoplasma gondii assessed as inhibition of growth measured after 5 days by beta-galactosidase assay; assay type: functional; settings: 120 h, read-out: ID50 (the source's name)
[1] = Cytotoxicity against human foreskin fibroblast cells by colorimetric method; assay type: cell-based; settings: human foreskin fibroblast (HFF) cells, read-out: TD50 (the source's name)
[2] = Therapeutic index, ratio of TD50 for human foreskin fibroblast cells to ID 50 for Toxoplasma gondii; assay type: cell-based; settings: read-out: TI

Row | SMILES | IC50 (Toxoplasma gondii) | CC50 [1] | selectivity ratio [2]
1 | O=c1c2ccccc2nc2n1-c1ccc(Br)cc1/C2=N/O | 0.085 µM | 50 µM | 590
2 | CC(=O)O/N=C1\c2ccccc2-n2c1nc1ccccc1c2=O | 1.1 µM | 35 µM | 32
3 | O=CO/N=C1\c2ccccc2-n2c1nc1ccccc1c2=O | 0.62 µM | 22 µM | 35
4 | N/N=C1/c2ccccc2-n2c1nc1ccccc1c2=O | 2 µM | 32 µM | 16
5 | N/N=C1/c2cc(Br)ccc2-n2c1nc1ccccc1c2=O | 0.31 µM | 79 µM | 250
6 | CC(=O)N/N=C1/c2ccccc2-n2c1nc1ccccc1c2=O | 12 µM | > 100 µM | > 8.3
7 | O=C(N/N=C1/c2ccccc2-n2c1nc1ccccc1c2=O)C(F)(F)F | 1.6 µM | > 100 µM | > 63
8 | CC1(O)c2cc(Br)ccc2-n2c1nc1ccccc1c2=O (configuration not stated) | 7 µM | > 100 µM | > 14
9 | O=C1c2ccccc2N[C@H]2[C@H](O)c3ccccc3N12 | 0.24 µM | 12 µM | 50
10 | O=C1c2ccccc2N[C@H]2[C@H](O)c3cc(Br)ccc3N12 | 0.002 µM | > 100 µM | > 50000
11 | CC(=O)O[C@@H]1c2ccccc2N2C(=O)c3ccccc3N[C@@H]12 | 1 µM | 40 µM | 40
12 | O=Nc1c2ccccc2n2c(O)c3ccccc3nc12 | 0.8 µM | > 100 µM | > 130
13 | O=C1c2cc(Br)ccc2-n2c1nc1ccccc1c2=O | 0.00323 µM | > 100 µM | > 33000
14 | CC1(O)c2ccccc2-n2c1nc1ccccc1c2=O (configuration not stated) | 8.7 µM | > 100 µM | > 11
15 | CON=C1c2ccccc2-n2c1nc1ccccc1c2=O (mixture of isomers) | 1.3 µM | > 100 µM | > 77
16 | CON=C1c2cc(Br)ccc2-n2c1nc1ccccc1c2=O (single isomer, unassigned) | 0.083 µM | > 100 µM | > 1200
17 | CC(=O)CC1(O)c2ccccc2-n2c1nc1ccccc1c2=O (configuration not stated) [PHAITANTHRINS A] | 0.23 µM | 11 µM | 49
18 | COc1cc(Cc2cnc(N)nc2N)cc(OC)c1OC [TRIMETHOPRIM] | 15 µM | > 100 µM | > 3
19 | O=C1c2ccccc2-n2c1nc1ccccc1c2=O [TRYPTANTHRIN] | 0.14 µM | 6.4 µM | 45
